IC50, fold change (FC) and Activity data for 13 molecules are collected here from ChEMBL document CHEMBL4417623, “Methods and compositions for inhibiting rho/mrtf-mediated diseases and conditions” (2015).

Calls of active or inactive are those of the source. The rule behind the calls is not given here.

Test [1] can be described thus: Inhibition of Rho/MRTF/SRF mediated signaling (unknown origin) assessed as reduction in MRTF/SRF-regulated gene transcription by SRE-luciferase expression based assay. Details: species or system Homo sapiens.
Test [2] is described as follows: Inhibition of Rho/MRTF/SRF mediated signaling (unknown origin) assessed as reduction in MRTF/SRF-regulated gene transcription by SRE-luciferase expression based assay relative to control. More on the design: species or system Homo sapiens.
For test [3], the species on record is Mus musculus. The test is described as follows: Inhibition of Rho/MRTF/SRF mediated signaling in mouse NIH/3T3 cells assessed as inhibition of fibrosis markers by measuring reduction in LPA-induced COL1A2-hn mRNA expression by qRT-PCR assay relative to perfenidone. Format: cell-based.
The species named for test [4] is Mus musculus. The test is described as follows: Inhibition of Rho/MRTF/SRF mediated signaling in mouse NIH/3T3 cells assessed as inhibition of fibrosis markers by measuring reduction in LPA-induced ACTA2 mRNA expression by qRT-PCR assay relative to perfenidone. It is filed as cell-based.
For test [5], the species on record is Homo sapiens. As to the kind of experiment: Inhibition of Rho/MRTF/SRF mediated signaling in human dermal fibroblasts assessed as suppression of myofibroblast activation by measuring reduction in TGFbeta-induced alpha-SMA expression incubated for 3 days relative to perfenidone.
Test [6] concerns Mus musculus. The test is described as follows: Suppression of fibrosis in C57bl/6 mouse model of bleomycin-induced dermal fibrosis at 100 mg/kg, bid dosed via oral gavage. Format: functional, organism-based.

Usually IC50 stands for the concentration that gives 50% inhibition. With `COc1cccc(-c2nnc(SCCC(=O)O)o2)c1`, the concentration for half-maximal inhibition (IC50) in test [1] stood at 3600 nM.

With `O=C(O)CCSc1nnc(-c2ccccc2)o1`, in test [1], the IC50 came out at 3500 nM.

`CC(ONC(=O)c1cc(C(F)(F)F)cc(C(F)(F)F)c1)C(=O)Nc1ccc(Cl)cc1` (stereo unspecified): in test [2], the concentration for half-maximal inhibition (IC50) is 1000 nM. With `CCOC(=O)CCSc1nnc(-c2ccc(Cl)cc2Cl)o1`, the IC50 in test [1] turned out to be 2.6 nM. On to `COc1ccc(-c2nnc(SCCC(=O)O)o2)cc1`, for which the half-inhibitory concentration (IC50) in test [1] was determined as 160 nM.

For `COc1ccc(-c2nnc(SCCC(=O)O)o2)c(Cl)c1`, the 50% inhibitory concentration (IC50) in test [1] is 2.6 nM. For the molecule `O=C(O)CCCSc1nnc(-c2ccc(Cl)cc2Cl)o1`, in test [1], the IC50 worked out at 1.8 nM. Consider `O=C(O)CCSc1nnc(-c2ccc(Cl)cc2)o1`, for which the half-maximal inhibitory concentration (IC50) in test [1] amounted to 340 nM.

As for `Cc1ccc(-c2nnc(SCCC(=O)O)o2)cc1`, the IC50 in test [1] was 34 nM. In the case of `O=C(O)CCSc1nnc(-c2cccc(Cl)c2)o1`, the IC50 in test [1] was 1500 nM. Regarding `O=C(Nc1ccc(Cl)cc1)C1CCCN(C(=O)c2cccc(-c3ccco3)c2)C1` (stereo unspecified), the fold change (FC) in test [3], in test [4] and in test [5] was 100 throughout. Further, in test [6], the result was Active. Regarding `Cc1cccc(-c2nnc(SCCC(=O)O)o2)c1`, in test [1], the IC50 worked out at 180 nM.

In the case of `Cc1ccc(-c2nnc(SCCC(=O)O)o2)c(Cl)c1`, the IC50 in test [1] was 1.5 nM.
